Test [1] has as its target IDO1 in human whole blood stimulated with LPS and IFNγ (Homo sapiens (Human), UniProt P14902). Put plainly: IDO1 Human Whole Blood Assay. Format: cell-based. The settings on record: LPS and IFNγ 100 ng/mL, 18 h, kynurenine by LC/MS/MS. As for the experimental part: IDO1 Human Whole Blood Assay
Compounds to be tested were serially diluted in ten 3-fold steps in DMSO starting from 10 mM. 3 μL of compound dilutions or DMSO alone were then dispensed from the dilution plate into a polypropylene 96-well assay plate containing 97 μL of RPMI using an Echo 555 acoustic liquid handler (Labcyte). LPS and IFNγ was prepared in RPMI to a 10× of final conc. (1000 ng/mL), final concentration is 100 ng/mL.
Human whole blood was drawn in sodium heparin coated tubes from healthy internal donors. Two hundred forty μL of blood was transferred to each of the wells of a v-bottom 96 well plate. Thirty μL of compound was transferred from intermediate dilution plate, and incubated for 15 min. Thirty μL from stimulants was then transferred to blood and mixed thoroughly. Plate was covered with breathable membrane and incubated at 37° C. for overnight (18 h).
On day 2 isotope labeled standard of kynurenine and tryptophan was made in water at 10× concentration and 30 μL was added to the blood at 3 μM final concentration. The assay plates were centrifuged at 300×G for 10 min with no brake to separate plasma from red blood cells. Sixty μL of plasma samples was removed without disturbing red blood cells. Plasma was diluted with RPMI in 1:1 ratio and proteins were precipitated out with two volume of Acetonitrile. The plates was centrifuged at 4000×G for 60 min. Twenty μL of supernatant was carefully transferred to a 384 well plate contain 40 μL of 0.1% formic acid in water and analyzed by LC/MS/MS.
LC/MS/MS analyses were performed using Thermo Fisher's LX4-TSQ Quantum Ultra system. This system consists of four Agilent binary high-performance liquid chromatography (HPLC) pumps and a TSQ Quantum Ultra triple quadruple MS/MS instrument. For each sample, 5 μL were injected onto an Atlantis T3 column (2.1 mm×150 mm, 3 μm particle size) from Waters. The mobile phase gradient pumped at 0.8 mL/min was used to elute the analytes from the column at 25° C. The elution started at 0% B increasing linearly to 25% B at 6.5 min, holding at 25% for 1 min, re-equilibrating to 10 min. Mobile phase A consisted of 0.1% formic acid in water. Mobile phase B consisted of 0.1% of formic acid in acetonitrile. Data was acquired in positive mode using a HESI interface. The operational parameters for the TSQ Quantum Ultra instrument were a spray voltage of 4000 V, capillary temperature of 380° C., vaporizer temperature 400° C., shealth gas 60 arbitrary units, Aux gas 20 arbitrary units, tube lens 85 and collision gas 1.2 mTorr. SRM chromatograms of kynurenine (Q 1: 209.2>Q3:94.0) and internal standard (Q1: 215.3>Q3:98.2) were collected for 90 sec. The peak area was integrated by Xcalibur Quan software. The ratios between the kynurenine generated in the reaction and 2D6-Kynurenine spiked-in internal standard were used to generate percentage inhibition and IC50 values. Compounds were titrated and IC50's were calculated by 4 parameter sigmoidal curve fitting formula.

The target in test [2] is IDO1 in Hela cells stimulated with IFNγ (Homo sapiens (Human), UniProt P14902). Nature of the test: IDO1 Cellular Assay in Hela Cells Stimulated with IFNγ. The settings on record: IFNγ 100 ng/mL, about 48 hours, fluorescence readout, read-out: IDO1 HELA Cell Assay, IC50. Format: cell-based. Here is the method: IDO1 Cellular Assay in Hela Cells Stimulated with IFNγ
Hela cells were cultured in complete Hela culture medium (90% EMEM, 10% heat-inactivated fetal bovine serum) and expanded to about 1×10^9 cells. The cells were then collected and frozen down at 10×10^6 cells/vial in 1 mL frozen medium (90% complete Hela culture medium, 10% DMSO)
Compounds to be tested were serially diluted in ten 3-fold steps in DMSO starting from 10 mM DMSO stocks in Echo low volume plate(s). Compound dilutions or DMSO alone were then dispensed from the dilution plate(s) into Greiner black 384-well assay plate(s) (catalog #781086, 50 nL/well) using an Echo 550 acoustic liquid handler (Labcyte).
Frozen Hela cells were thawed and transferred into Hela assay medium (99% complete Hela culture medium, 1% Pen/Strep) with 20 mL medium/vial of cells. The cells were spun down at 250 g in a table top centrifuge for 5 min and suspended in same volume of Hela assay medium. The cells were then counted and adjusted to a density of 2×10^5 cells/ml in Hela assay medium. Sterile L-tryptophan were added to the cells with final concentration of 300 uM L-tryptophan. A small aliquot (2 mL/plate) of Hela cells were set aside and were not treated with IFNγ, to serve as the Max-E control. The rest of Hela cells were added with sterile IFNγ (Cat #285-IF, R & D systems) with a final concentration of 100 ng/mL.
Hela cells with and without IFNγ were dispensed to the respective wells of 384-well assay plates containing the compounds. The plates were incubated for about 48 hours at a 37° C., 5% CO2 incubator. Afterwards, 12 μL of 0.5 M methyl isonipecotate in dimethyl sulfoxide were added into each well and the plates were sealed and incubated at 37° C. without CO2 overnight. The plates were centrifuged for 1 min at 200×g. The resulting fluorescence was measured in a Spectramax plate reader (Molecular Devices) with a 400 nm excitation filter and a 510 nm emission filter.
The fluorescence intensity of each well was corrected for the background observed in wells with non-IFNγ-treated cells and was expressed as a fraction of the intensity observed in wells of IFNγ-treated cells and DMSO only. Potencies were calculated by linear least squares fit to the four parameter logistic IC50 equation.

The target of a further test is HIS-tagged IDO1 protein (Homo sapiens (Human), UniProt P14902). Nature of the test: IDO1 Enzyme Assay. Format: biochemical. The following applies: recombinant IDO1 40 nM, tryptophan substrate, fluorescence readout. Here is the method: Biological Assays IDO1 Enzyme Assay
Compounds to be tested were serially diluted in ten 3-fold steps in DMSO starting from 10 mM DMSO stocks. Compound dilutions or DMSO alone were then dispensed from the dilution plate into a Greiner black 384-well assay plate (catalog #781086) using an Echo 555 acoustic liquid handler (Labcyte).
HIS-tagged IDO1 protein was recombinantly expressed in Escherichia coli using ZYP5052 autoinduction media supplemented with 500 μM delta aminolevulinic acid for 48 hours at 16 degrees Celsius. IDO1 protein was purified using Ni^2+-affinity resin and size exclusion chromatography. Purified protein was then diluted in assay buffer (50 mM Tris pH 7.0, 1% glycerol, 20 μM methylene blue, 0.05% Tween-20, 20 mM sodium ascorbate, 100 units/mL catalase to obtain a final IDO1 concentration of 40 nM. IDO1 solution […] or buffer alone […] was dispensed to wells of the assay plate using a BioRAPTR liquid dispenser (Beckman Coulter). Assay plates containing compound and IDO1 enzyme were incubated at room temperature for 30 minutes. Afterwards, 10 μL of 400 μM tryptophan in assay buffer were added to each well of the assay plate using a BioRAPTR liquid dispenser. Plates were incubated at room temperature for 60 minutes and reactions were quenched by addition of 10 μL of 0.5 M methyl isonipecotate in dimethyl sulfoxide. Plates were sealed and incubated at 37 degrees Celsius for 4 hours or 50 degrees Celsius for 2 hours. The plates are allowed to cool and then centrifuged for 1 minute at 1000×g. The resulting fluorescence was measured in an Envision plate reader (Perkin Elmer) with a 400/25 nm excitation filter and an 510/20 nm emission filter.
Potencies were calculated by linear least squares fit to the four parameter logistic IC50 equation.

Chain of HIS-tagged IDO1 protein (P14902 whole entry): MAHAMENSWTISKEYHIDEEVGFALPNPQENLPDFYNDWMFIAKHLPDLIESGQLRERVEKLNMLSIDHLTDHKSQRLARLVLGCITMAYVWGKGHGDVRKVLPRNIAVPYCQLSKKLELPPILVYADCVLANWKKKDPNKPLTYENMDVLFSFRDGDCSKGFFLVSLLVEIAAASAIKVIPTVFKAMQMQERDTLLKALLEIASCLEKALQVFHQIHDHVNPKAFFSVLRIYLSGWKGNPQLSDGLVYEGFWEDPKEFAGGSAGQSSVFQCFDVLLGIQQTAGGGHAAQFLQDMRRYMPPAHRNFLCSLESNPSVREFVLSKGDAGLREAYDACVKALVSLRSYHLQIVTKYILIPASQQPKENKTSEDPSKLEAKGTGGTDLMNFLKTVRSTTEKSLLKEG
Chain of IDO1 in Hela cells stimulated with IFNγ (P14902 whole entry): as above
Chain of IDO1 in human whole blood stimulated with LPS and IFNγ (P14902 whole entry): as above

As to `NS(=O)(=O)NCCOc1nonc1/C(=N/O)N[C@H]1Cc2ccc(F)cc21` [Example 1, (S)—N-(4-fluorobicyclo[4.2.0]octa-1(6),2,4-trien-7-yl)-N′-hydroxy-4-(2-(sulfamoylamino)ethoxy)-1,2,5-oxadiazole-3-carboximidamide], in test [1], the “IDO1 human whole blood assay, IC50” value came to 666.4 nM. In addition, the IC50 in test [2] came to 106 nM; at HIS-tagged IDO1 protein, 49.3 nM.

Regarding `O=C(CO)N1CC(Oc2nonc2/C(=N/O)N[C@H]2Cc3ccc(F)cc32)C1` [Example 2, (S)—N-(4-fluorobicyclo[4.2.0]octa-1(6),2,4-trien-7-yl)-N′-hydroxy-4-((1-(2-hydroxyacetyl)azetidin-3-yl)oxy)-1,2,5-oxadiazole-3-carboximidamide], the “IDO1 human whole blood assay, IC50” value in test [1] came out at 232.5 nM. The IC50 in test [2] came out at 93.5 nM; on HIS-tagged IDO1 protein it was 75.7 nM.

Turning to `CC(=O)NC[C@@H](CO)Oc1nonc1/C(=N/O)N[C@H]1Cc2ccc(F)cc21` [Example 55, N-{(2S)-2-[(4-{N-[(7S)-4-fluorobicyclo[4.2.0]octa-1,3,5-trien-7-yl]-N′-hydroxycarbamimidoyl}-1,2,5-oxadiazol-3-yl)oxy]-3-hydroxypropyl}acetamide], the IC50 stood at 328 nM in test [2] and 216 nM on HIS-tagged IDO1 protein.

With `O=C(CO)N1CCC[C@@H]1COc1nonc1/C(=N/O)N[C@H]1Cc2ccc(F)cc21` [Example 58, N-[(7S)-4-fluorobicyclo[4.2.0]octa-1,3,5-trien-7-yl]-N′-hydroxy-4-{[(2R)-1-(hydroxyacetyl)pyrrolidin-2-yl]methoxy}-1,2,5-oxadiazole-3-carboximidamide], the IC50 came out at 1340 nM in test [2] and 1490 nM at HIS-tagged IDO1 protein.

`O=C(CO)N1CC(COc2nonc2/C(=N/O)N[C@H]2Cc3ccc(F)cc32)C1` [Example 59, N-[(7S)-4-fluorobicyclo[4.2.0]octa-1,3,5-trien-7-yl]-N′-hydroxy-4-{[1-(hydroxyacetyl)azetidin-3-yl]methoxy}-1,2,5-oxadiazole-3-carboximidamide]: the IC50 in test [2] stood at 298 nM; on HIS-tagged IDO1 protein, 364 nM.

Regarding `O=C(CO)N1CC[C@@H](Oc2nonc2/C(=N/O)N[C@H]2Cc3ccc(F)cc32)C1` [Example 60, N-[(7S)-4-fluorobicyclo[4.2.0]octa-1,3,5-trien-7-yl]-N′-hydroxy-4-{[(3R)-1-(hydroxyacetyl)pyrrolidin-3-yl]oxy}-1,2,5-oxadiazole-3-carboximidamide], the figures for the IC50 (in test [2]; at HIS-tagged IDO1 protein) were 1440 nM and 1390 nM, respectively.

As to `C[C@@H](O)C(=O)N1CC(Oc2nonc2/C(=N/O)N[C@H]2Cc3ccc(F)cc32)C1` [Example 61, N-((S)-4-fluorobicyclo[4.2.0]octa-1(6),2,4-trien-7-yl)-N′-hydroxy-4-((1-((R)-2-hydroxypropanoyl)azetidin-3-yl)oxy)-1,2,5-oxadiazole-3-carboximidamide], the IC50 is 99 nM in test [2] and 89 nM on HIS-tagged IDO1 protein.

In the case of `NS(=O)(=O)N1CC(Oc2nonc2/C(=N/O)N[C@H]2Cc3ccc(F)cc32)C1` [Example 62, (S,Z)-N-(4-fluorobicyclo[4.2.0]octa-1(6),2,4-trien-7-yl)-N′-hydroxy-4-((1-sulfamoylazetidin-3-yl)oxy)-1,2,5-oxadiazole-3-carboximidamide], the IC50 in test [2] turned out to be 44 nM; at HIS-tagged IDO1 protein, 24 nM.

Consider `NC(=O)N1CC(Oc2nonc2/C(=N/O)N[C@H]2Cc3ccc(F)cc32)C1` [Example 63, (S,Z)-3-((4-(N-(4-fluorobicyclo[4.2.0]octa-1(6),2,4-trien-7-yl)-N′-hydroxycarbamimidoyl)-1,2,5-oxadiazol-3-yl)oxy)azetidine-1-carboxamide], for which the figures for the IC50 (in test [2]; on HIS-tagged IDO1 protein) were 36 nM and 20 nM, respectively.

Turning to `NS(=O)(=O)NCCCOc1nonc1/C(=N/O)N[C@H]1Cc2ccc(F)cc21` [Example 64, (S,Z)-N-(4-fluorobicyclo[4.2.0]octa-1(6),2,4-trien-7-yl)-N′-hydroxy-4-(3-(sulfamoylamino)propoxy)-1,2,5-oxadiazole-3-carboximidamide], the IC50 in test [2] turned out to be 66 nM; on HIS-tagged IDO1 protein it was 37 nM.

As for `O=C(N[C@H]1C[C@@H](Oc2nonc2/C(=N/O)N[C@H]2Cc3ccc(F)cc32)C1)C1(O)CC1` [Example 65, N-((1R,3s)-3-((4-((Z)-N-((S)-4-fluorobicyclo[4.2.0]octa-1(6),2,4-trien-7-yl)-N′-hydroxycarbamimidoyl)-1,2,5-oxadiazol-3-yl)oxy)cyclobutyl)-1-hydroxycyclopropanecarboxamide], the IC50 came to 280 nM in test [2] and 167 nM on HIS-tagged IDO1 protein.

In the case of `CC(C)(O)C(=O)N[C@H]1C[C@@H](Oc2nonc2/C(=N/O)N[C@H]2Cc3ccc(F)cc32)C1` [Example 66, N-((1R,3s)-3-((4-((Z)-N-((S)-4-fluorobicyclo[4.2.0]octa-1(6),2,4-trien-7-yl)-N′-hydroxycarbamimidoyl)-1,2,5-oxadiazol-3-yl)oxy)cyclobutyl)-2-hydroxy-2-methylpropanamide], the IC50 is 287 nM in test [2] and 167 nM on HIS-tagged IDO1 protein.

As to `C[C@@H](CNS(N)(=O)=O)Oc1nonc1/C(=N/O)N[C@H]1Cc2ccc(F)cc21` [Example 67, (Z)-N-((S)-4-fluorobicyclo[4.2.0]octa-1(6),2,4-trien-7-yl)-N′-hydroxy-4-(((S)-1-(sulfamoylamino)propan-2-yl)oxy)-1,2,5-oxadiazole-3-carboximidamide], the IC50 in test [2] was 848 nM; on HIS-tagged IDO1 protein it was 1550 nM.

By IC50 is commonly meant the concentration that inhibits the measured activity by half.

Source of the values: patent US11034661B2, “Substituted N′-hydroxycarbamimidoyl-1,2,5-oxadiazole compounds as indoleamine 2,3-dioxygenase IDO inhibitors” (Merck Sharp & Dohme Corp., priority 2017, dated 2021).
